# Assay results published in patent US20240374535A1, “COMPOSITIONS AND METHODS FOR TREATING BIOFILM DISORDERS AND INFECTIONS” (AHV International B.V., priority 2021, published 2024).
# Columns and labels:
# [1] = tested on: Staphylococcus epidermis ATCC 35984 biofilm; assay: MBEC assay (biofilm eradication, CFU log reduction); format: cell-based, S. epidermidis; settings: 48 h grown biofilm, 20 h treatment, CFU log reduction vs untreated
# How it was run: (§1)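 Biofilms were grown 48 h static at 37 °C in TSB from inocula at OD600 0.2, then treated 20 h at 37 °C with 1, 0.5, 0.25 or 0.125 mM compound in saline (Tween 80 and DMSO each 0.63–0.08%), four replicates per condition. Resuspended biofilm was serially diluted and plated on TSA for 24 h; log CFU reduction versus untreated, with ≥1 counted as significant, in two independent experiments.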
# [2] = tested on: Pseudomonas aeruginosa ATCC 27853 biofilm; assay: as above; format: cell-based, P. aeruginosa; settings: 48 h grown biofilm, 20 h treatment, CFU log reduction vs untreated
# How it was run: as §1
# [3] = tested on: udder cleft wound; assay: In vivo udder cleft dermatitis test: wound assessment after spray treatment; design: species or system cow; settings: for inflammation of the udder cleft wound after treatment: immediately after the treatment, later infection reduced and wound healed; for Conclusion (effect on udder cleft wound): over 60 days, all cows of the group
# Method: An example of a biofilm-related disorder is Udder Cleft Dermatitis (UCD), which relates to a chronic wound. In this Example, di-alkyl thiosulfonates, dialkyl thiosulfinates and di-alkyl disulfides were tested for their effect on cows affected by UCD.
# Experiments were performed to examine the effect of various sprays containing water (control), a test compound, or a reference compound (CTC spray, which contains chlorotetracycline hydrochloride, and was obtained from Dechra veterinary products).
# 0.35 mL of the spray was sprayed on an udder cleft wound per treatment. Treatments took place once a day at t=0, at t=3 days and t=6 days. In Table 6, the assessment qualifications that are used in Table 7, are explained.
Compound,S. epidermidis MBEC mM with log reduction ≥1 [1],P. aeruginosa MBEC mM with log reduction ≥1 [2],inflammation of the udder cleft wound after treatment [3],Conclusion (effect on udder cleft wound) [3],minimal effective concentration ([1]; read-out: S. epidermidis MBEC mM with log reduction ≥1),"minimal effective concentration ([2]; Pseudomonas aeruginosa, ATCC27853, read-out: P. aeruginosa MBEC mM with log reduction ≥1)"
"CSS(C)(=O)=O [Di-methyl thiosulfonate, methyl methane thiosulfonate]",2 mM,2 mM,fast inflammation reduction,Positive effect,–,–
"CCCS[S+]([O-])CCC (centres unmarked) [Di-n-propyl thiosulfinate, S-propyl propane-1-sulfinothioate]",–,–,fast inflammation reduction,Positive effect,2 mM,4 mM
